Data as given in ChEMBL document CHEMBL1138545, “Synthesis and antimicrobial activities of some new triazolothiadiazoles bearing 4-methylthiobenzyl moiety” (2009).
Values after ≈ are worked out from the molar mass of the structure shown.

Tests used:
Format in all cases: functional
Staphylococcus aureus = assay: Antibacterial activity against Staphylococcus aureus ATTC […] after 24 hrs by the disk diffusion method; details: for MIC: Staphylococcus aureus, 24 h
Escherichia coli = assay: Antibacterial activity against Escherichia coli ATTC 25922 after 24 hrs by the disk diffusion method; details: for MIC: Escherichia coli, ATTC 25922, 24 h
Candida albicans = assay: Antifungal activity against Candida albicans NICM 300 after 3 to days by serial plate dilution method; details: for MIC: Candida albicans, NICM 300
Klebsiella pneumoniae = assay: Antibacterial activity against Klebsiella pneumoniae after 24 hrs by the disk diffusion method; details: for MIC: Klebsiella pneumoniae, 24 h
Pseudomonas aeruginosa = assay: Antibacterial activity against Pseudomonas aeruginosa ATTC 27853 after 24 hrs by the disk diffusion method; details: for MIC: Pseudomonas aeruginosa, ATTC 27853, 24 h
Aspergillus flavus = assay: Antifungal activity against Aspergillus flavus NICM 524 after 3 to days by serial plate dilution method; details: for MIC: Aspergillus flavus, NICM 524
Aspergillus fumigatus = assay: Antifungal activity against Aspergillus fumigatus NICM 902 after 3 to days by serial plate dilution method; details: for MIC: Aspergillus fumigatus, NICM 902
[1] = system: Trichophyton mentagrophytes; assay: Antifungal activity against Trichophyton mentagrophytes after 3 to days by serial plate dilution method; details: for MIC: Trichophyton mentagrophytes

MIC (Staphylococcus aureus) | MIC (Escherichia coli) | MIC (Candida albicans) | MIC (Klebsiella pneumoniae) | MIC (Pseudomonas aeruginosa) | MIC (Aspergillus flavus) | MIC (Aspergillus fumigatus) | MIC [1] | SMILES | inhibition zone (IZ) (Staphylococcus aureus) | inhibition zone (IZ) (Escherichia coli) | diameter of the inhibition zone (DIZ) (Candida albicans) | inhibition zone (IZ) (Klebsiella pneumoniae) | inhibition zone (IZ) (Pseudomonas aeruginosa) | diameter of the inhibition zone (DIZ) (Aspergillus flavus) | diameter of the inhibition zone (DIZ) (Aspergillus fumigatus) | diameter of the inhibition zone (DIZ) [1]
25 µg/mL (≈ 70.5 µM) | 25 µg/mL (≈ 70.5 µM) | 6 µg/mL (≈ 16.9 µM) | 25 µg/mL (≈ 70.5 µM) | 25 µg/mL (≈ 70.5 µM) | 12.5 µg/mL (≈ 35.3 µM) | 6 µg/mL (≈ 16.9 µM) | 6 µg/mL (≈ 16.9 µM) | CSc1ccc(Cc2nnc3sc(-c4ccc(O)cc4)nn23)cc1 | 12 mm | 10 mm | 20 mm | 17 mm | 12 mm | 18 mm | 22 mm | 18 mm
12.5 µg/mL (≈ 32.6 µM) | 12.5 µg/mL (≈ 32.6 µM) | 25 µg/mL (≈ 65.2 µM) | 12.5 µg/mL (≈ 32.6 µM) | 6 µg/mL (≈ 15.6 µM) | 25 µg/mL (≈ 65.2 µM) | 25 µg/mL (≈ 65.2 µM) | 25 µg/mL (≈ 65.2 µM) | CSc1ccc(Cc2nnc3sc(-c4ccc([N+](=O)[O-])cc4)nn23)cc1 | 16 mm | 17 mm | 14 mm | 13 mm | 18 mm | 11 mm | 15 mm | 11 mm
12.5 µg/mL (≈ 28.5 µM) | 6 µg/mL (≈ 13.7 µM) | 25 µg/mL (≈ 57 µM) | 12.5 µg/mL (≈ 28.5 µM) | 6 µg/mL (≈ 13.7 µM) | 25 µg/mL (≈ 57 µM) | 12.5 µg/mL (≈ 28.5 µM) | 25 µg/mL (≈ 57 µM) | CSc1ccc(Cc2nnc3sc(-c4ccc(-c5ccc(Cl)cc5)o4)nn23)cc1 | 18 mm | 20 mm | 12 mm | 22 mm | 18 mm | 10 mm | 17 mm | 16 mm
25 µg/mL (≈ 52.8 µM) | 12.5 µg/mL (≈ 26.4 µM) | 6 µg/mL (≈ 12.7 µM) | 12.5 µg/mL (≈ 26.4 µM) | 6 µg/mL (≈ 12.7 µM) | 6 µg/mL (≈ 12.7 µM) | 25 µg/mL (≈ 52.8 µM) | 12.5 µg/mL (≈ 26.4 µM) | CSc1ccc(Cc2nnc3sc(-c4ccc(-c5cc(Cl)ccc5Cl)o4)nn23)cc1 | 16 mm | 16 mm | 20 mm | 20 mm | 18 mm | 18 mm | 13 mm | 17 mm
25 µg/mL (≈ 61.4 µM) | 25 µg/mL (≈ 61.4 µM) | 25 µg/mL (≈ 61.4 µM) | 25 µg/mL (≈ 61.4 µM) | 25 µg/mL (≈ 61.4 µM) | 25 µg/mL (≈ 61.4 µM) | 25 µg/mL (≈ 61.4 µM) | 25 µg/mL (≈ 61.4 µM) | CSc1ccc(Cc2nnc3sc(-c4cc(Cl)ccc4Cl)nn23)cc1 | 15 mm | 12 mm | 15 mm | 13 mm | 10 mm | 11 mm | 11 mm | 13 mm
12.5 µg/mL (≈ 31.4 µM) | 12.5 µg/mL (≈ 31.4 µM) | 6 µg/mL (≈ 15.1 µM) | 25 µg/mL (≈ 62.7 µM) | 6 µg/mL (≈ 15.1 µM) | 25 µg/mL (≈ 62.7 µM) | 6 µg/mL (≈ 15.1 µM) | 6 µg/mL (≈ 15.1 µM) | CSc1ccc(Cc2nn3c(Cc4ccc(SC)cc4)nnc3s2)cc1 | 18 mm | 16 mm | 19 mm | 13 mm | 18 mm | 17 mm | 22 mm | 20 mm
25 µg/mL (≈ 55.6 µM) | 25 µg/mL (≈ 55.6 µM) | 12.5 µg/mL (≈ 27.8 µM) | 12.5 µg/mL (≈ 27.8 µM) | 25 µg/mL (≈ 55.6 µM) | 25 µg/mL (≈ 55.6 µM) | 25 µg/mL (≈ 55.6 µM) | 25 µg/mL (≈ 55.6 µM) | CSc1ccc(Cc2nnc3sc(-c4ccc(-c5ccc([N+](=O)[O-])cc5)o4)nn23)cc1 | 16 mm | 17 mm | 17 mm | 20 mm | 10 mm | 11 mm | 14 mm | 11 mm
12.5 µg/mL (≈ 26.5 µM) | 12.5 µg/mL (≈ 26.5 µM) | 25 µg/mL (≈ 52.9 µM) | 6 µg/mL (≈ 12.7 µM) | 6 µg/mL (≈ 12.7 µM) | 25 µg/mL (≈ 52.9 µM) | 6 µg/mL (≈ 12.7 µM) | 6 µg/mL (≈ 12.7 µM) | CSc1ccc(Cc2nnc3sc(-c4ccc(-c5ccccc5C(F)(F)F)o4)nn23)cc1 | 19 mm | 18 mm | 15 mm | 25 mm | 18 mm | 11 mm | 20 mm | 20 mm
12.5 µg/mL (≈ 29.9 µM) | 12.5 µg/mL (≈ 29.9 µM) | 6 µg/mL (≈ 14.4 µM) | 6 µg/mL (≈ 14.4 µM) | 12.5 µg/mL (≈ 29.9 µM) | 12.5 µg/mL (≈ 29.9 µM) | 6 µg/mL (≈ 14.4 µM) | 6 µg/mL (≈ 14.4 µM) | CSc1ccc(Cc2nnc3sc(-c4ccc([N+](=O)[O-])cc4Cl)nn23)cc1 | 19 mm | 18 mm | 20 mm | 23 mm | 17 mm | 17 mm | 22 mm | 19 mm
25 µg/mL (≈ 70.9 µM) | 25 µg/mL (≈ 70.9 µM) | 6 µg/mL (≈ 17 µM) | 25 µg/mL (≈ 70.9 µM) | 25 µg/mL (≈ 70.9 µM) | 25 µg/mL (≈ 70.9 µM) | 25 µg/mL (≈ 70.9 µM) | 25 µg/mL (≈ 70.9 µM) | CSc1ccc(Cc2nnc3sc(Cc4ccccc4)nn23)cc1 | 11 mm | 11 mm | 17 mm | 14 mm | 15 mm | 10 mm | 13 mm | 12 mm
12.5 µg/mL (≈ 25.8 µM) | 6 µg/mL (≈ 12.4 µM) | 12.5 µg/mL (≈ 25.8 µM) | 6 µg/mL (≈ 12.4 µM) | 6 µg/mL (≈ 12.4 µM) | 12.5 µg/mL (≈ 25.8 µM) | 6 µg/mL (≈ 12.4 µM) | 6 µg/mL (≈ 12.4 µM) | CSc1ccc(Cc2nnc3sc(-c4ccc(-c5ccc(Cl)cc5[N+](=O)[O-])o4)nn23)cc1 | 18 mm | 19 mm | 18 mm | 23 mm | 18 mm | 18 mm | 22 mm | 17 mm
25 µg/mL (≈ 57.5 µM) | 12.5 µg/mL (≈ 28.8 µM) | 25 µg/mL (≈ 57.5 µM) | 12.5 µg/mL (≈ 28.8 µM) | 12.5 µg/mL (≈ 28.8 µM) | 12.5 µg/mL (≈ 28.8 µM) | 6 µg/mL (≈ 13.8 µM) | 6 µg/mL (≈ 13.8 µM) | COc1ccc(-c2ccc(-c3nn4c(Cc5ccc(SC)cc5)nnc4s3)o2)cc1 | 14 mm | 16 mm | 10 mm | 18 mm | 17 mm | 18 mm | 22 mm | 18 mm
25 µg/mL (≈ 51.7 µM) | 25 µg/mL (≈ 51.7 µM) | 6 µg/mL (≈ 12.4 µM) | 25 µg/mL (≈ 51.7 µM) | 25 µg/mL (≈ 51.7 µM) | 12.5 µg/mL (≈ 25.9 µM) | 6 µg/mL (≈ 12.4 µM) | 6 µg/mL (≈ 12.4 µM) | CSc1ccc(Cc2nnc3sc(-c4ccc(-c5ccc(Br)cc5)o4)nn23)cc1 | 12 mm | 11 mm | 18 mm | 15 mm | 11 mm | 17 mm | 20 mm | 20 mm
 |  | 6 µg/mL |  |  | 12.5 µg/mL | 6 µg/mL | 6 µg/mL | Cc1cc(C2CCCCC2)n(O)c(=O)c1.NCCO [CICLOPIROX OLAMINE] |  |  | 20 mm |  |  | 18 mm | 22 mm | 20 mm
25 µg/mL (≈ 49.2 µM) | 25 µg/mL (≈ 49.2 µM) | 25 µg/mL (≈ 49.2 µM) | 25 µg/mL (≈ 49.2 µM) | 25 µg/mL (≈ 49.2 µM) | 12.5 µg/mL (≈ 24.6 µM) | 25 µg/mL (≈ 49.2 µM) | 25 µg/mL (≈ 49.2 µM) | CSc1ccc(Cc2nnc3sc(-c4ccc(-c5cc(Cl)c(Cl)cc5Cl)o4)nn23)cc1 | 13 mm | 12 mm | 12 mm | 10 mm | 10 mm | 17 mm | 12 mm | 17 mm
25 µg/mL (≈ 52.1 µM) | 25 µg/mL (≈ 52.1 µM) | 25 µg/mL (≈ 52.1 µM) | 6 µg/mL (≈ 12.5 µM) | 25 µg/mL (≈ 52.1 µM) | 25 µg/mL (≈ 52.1 µM) | 12.5 µg/mL (≈ 26.1 µM) | 25 µg/mL (≈ 52.1 µM) | COc1ccc(-c2ccc(-c3nn4c(Cc5ccc(SC)cc5)nnc4s3)o2)c([N+](=O)[O-])c1 | 12 mm | 13 mm | 17 mm | 21 mm | 12 mm | 12 mm | 19 mm | 15 mm
12.5 µg/mL (≈ 35.1 µM) | 12.5 µg/mL (≈ 35.1 µM) | 25 µg/mL (≈ 70.1 µM) | 6 µg/mL (≈ 16.8 µM) | 12.5 µg/mL (≈ 35.1 µM) | 12.5 µg/mL (≈ 35.1 µM) | 12.5 µg/mL (≈ 35.1 µM) | 12.5 µg/mL (≈ 35.1 µM) | CSc1ccc(Cc2nnc3sc(-c4ccc(F)cc4)nn23)cc1 | 18 mm | 19 mm | 10 mm | 25 mm | 17 mm | 16 mm | 19 mm | 17 mm
